Results from publication PMC12250965, “Design and Synthesis of Sulfonium and Selenonium Derivatives Bearing 3′,5′-O-Benzylidene Acetal Side Chain Structure as Potent α-Glucosidase Inhibitors” (Molecules, 2025).
Converted amounts (≈) assume the structure as drawn. Where two headings read alike, the source gives them in different places.

How the values were obtained:
rat intestinal sucrase [1] = target: T1, rat intestinal sucrase (Rattus norvegicus, UniProt P23739); test: Inhibition-kinetic study (Lineweaver–Burk), sucrase; format: biochemical
T1 construct: rat small intestinal brush border membrane vesicles were first prepared; from tissue; host or cells: rat small intestine, brush border membrane vesicles
Description: (§1) In order to explore the inhibitory mechanism of the α-glucosidase by this family of compounds, enzyme kinetic assays were conducted on 20a, 20c, and 10, followed by a detailed kinetic analysis using the Lineweaver–Burk plots. (Figure 3) The small intestinal brush border membrane vesicles were incubated with varying concentrations of maltose (3.27 mg/mL) for maltase assays and sucrose (52.37 mg/mL) for sucrase assays.
(§2) For kinetic analyses of maltase and sucrase by compounds (20a, 20c, and 10), the enzyme and test samples (1.0 mg/mL for maltase and 0.2 mg/mL for sucrase) were incubated with increasing concentrations of maltose (2.5, 5, 10, 20, 50, 100 μM) and sucrose (5, 10, 20, 50, 100, 1000 μM) at 37 °C for 30 min. The tube was immediately immersed in boiling water for 2 min to stop the reaction, then cooled with water. The glucose concentration was determined by the glucose-oxidase method. […] The Lineweaver–Burk equation follows as: 1/V=Km/Vmax×[…]
(§3) Ki values for each inhibitor were determined by the equation: Ki=[I]×Km/[[…]−Km]

sucrose-loaded mice = test: Sucrose loading test (hypoglycemic effect); format: in vivo, ICR mice; settings: sucrose loading […] p.o.
Description: Research has shown a strong association between the 2 h postprandial blood glucose level and the risk of cardiovascular events, diabetic microvascular complications such as retinopathy, and the progression of macrovascular diseases. […] Considering this underlying pathological process, α-glucosidase inhibitors, which efficiently regulate postprandial glucose fluctuations, hold significant therapeutic promise for alleviating diabetes-related complications. […] Subsequently, doses were reduced to 1.0 mg/kg.
(§4) The animal experimental protocols in this study were approved by the Experimental Animal Center of Shanghai Institute of Materia Medica (Shanghai, China). Male ICR (Institute of Cancer Research) mice (29−33 g) after an overnight fast were used for acute maltose and sucrose loading tests. In the maltose loading test, maltose (2.0 mpk of body weight) and the inhibitors and voglibose were dissolved in distillation−distillation water and administered to the mice via a stomach tube. A control group was loaded with distillation−distillation water. In the sucrose loading test, sucrose (2.5 g/kg of body weight) and the inhibitor miglitol were dissolved in distillation−distillation water and administered to the mice via a stomach tube. A control group was loaded with distillation−distillation water. Blood samples for glucose measurements were obtained from the tail vein at 0, 15, 30, 60, and 120 min after maltose and sucrose loading. The blood glucose levels were measured by a portable kit, StatStrip Xpress (Nova Biomedical Co., Ltd., Waltham, MA, USA). The AUC over was calculated by the trapezoidal method.

maltose-loaded mice = test: Maltose loading test (hypoglycemic effect); format: in vivo, ICR mice; settings: maltose loading 2.0 g/kg, 1.0 mpk
Description: A maltose loading test on compounds 10, 20c, neoponkoranol, and positive control (voglibose) was conducted to further evaluate their in vivo hypoglycemic effects against maltase.
as §4, with “In the maltose loading test, maltose (2.0 mpk of body weight) and the inhibitors and voglibose were dissolved in distillation−distillation water and administered to the mice via a stomach tube.” left out

[2] = tested on: HELF, a human embryonic lung fibroblast cell line; test: MTT cytotoxicity assay on HELF cells; format: cell-based; settings: different cell lines
Description: The cytotoxicity of selected sulfonium salts (20a, 20c, and 10) was then evaluated via the 3-[4,5-dimethylthiazol-2-yl]-2,5-diphenyl-tetrazolium bromide (MTT) assay against different cell lines.
Briefly, the HELF-adherent cells were cultured in a 96-well plate overnight in a CO2 environment at 37 °C. Supernatant was removed, and 100 μL serially diluted compounds with complete medium DMEM supplemented with 10% (v/v) fetal bovine serum, penicillin (100 units/mL), and streptomycin (100 μg/mL) were added to each well. After the incubation, the culture medium was aspirated carefully, and 50 μL of MTT solution (2mg/mL PBS) was added to each well and further incubated for 4h. After this, MTT solution was aspirated, and cells were PBS-washed once, and 100 μL of DMSO was added to dissolve the blue insoluble MTT formazan produced by the action of mitochondrial dehydrogenase. The plate was agitated at room temperature for 15 min and then read at 570 nm by using a microplate reader. The percentage of viable cells was calculated as the relative ratio of optical densities.

rat intestinal maltase [3] = test: Inhibition-kinetic study (Lineweaver–Burk), maltase; format: biochemical; settings: for Ki Maltase (Km = 3.0 mM): small intestinal α-glucosidase, Lineweaver–Burk
Description: as §1, §2, §3

rat intestinal maltase [4] = settings: literature value ^[a]; read-out: IC50 against maltase (converted); cited from earlier work
rat intestinal maltase [5] = test: In vitro α-glucosidase inhibition assay, rat intestinal maltase; format: biochemical; settings: rat small intestinal brush border membrane vesicles; maltose substrate; mean ± SD (n = 3); read-out: IC50 against maltase
Description: (§5) The testing method previously described was modified and used. Thus, rat small intestinal brush border membrane vesicles were first prepared, and its suspension in 0.1 M maleate buffer (pH = 6.0) was used as small intestinal α-glucosidases of maltase and sucrase. A test compound was dissolved in dimethylsulfoxide (DMSO), and the resulting solution was diluted with 0.1 M maleate buffer to prepare the test compound solution (concentration of DMSO: 10%). The substrate solution in maleate buffer ([…], 50 μL), a test compound solution (25 μL), and the enzyme solution (25 μL) were mixed and incubated at 37 °C for 30 min. After incubation, the solution was immediately heated by boiling water for 2 min to stop the reaction, and the solution was mixed with water (150 μL). Glucose concentration was determined by the glucose-oxidase method. […] The IC50 value was determined graphically by a plot of percent inhibition versus log of the test compound.

rat intestinal sucrase [6] = target: T1, rat intestinal sucrase; test: In vitro α-glucosidase inhibition assay, rat intestinal sucrase; format: biochemical
Description: as §5

[7] = rat small intestinal brush border membrane vesicles, sucrose substrate, mean ± SD (n = 3), read-out: IC50 against sucrase

T1 sequence (P23739 whole entry): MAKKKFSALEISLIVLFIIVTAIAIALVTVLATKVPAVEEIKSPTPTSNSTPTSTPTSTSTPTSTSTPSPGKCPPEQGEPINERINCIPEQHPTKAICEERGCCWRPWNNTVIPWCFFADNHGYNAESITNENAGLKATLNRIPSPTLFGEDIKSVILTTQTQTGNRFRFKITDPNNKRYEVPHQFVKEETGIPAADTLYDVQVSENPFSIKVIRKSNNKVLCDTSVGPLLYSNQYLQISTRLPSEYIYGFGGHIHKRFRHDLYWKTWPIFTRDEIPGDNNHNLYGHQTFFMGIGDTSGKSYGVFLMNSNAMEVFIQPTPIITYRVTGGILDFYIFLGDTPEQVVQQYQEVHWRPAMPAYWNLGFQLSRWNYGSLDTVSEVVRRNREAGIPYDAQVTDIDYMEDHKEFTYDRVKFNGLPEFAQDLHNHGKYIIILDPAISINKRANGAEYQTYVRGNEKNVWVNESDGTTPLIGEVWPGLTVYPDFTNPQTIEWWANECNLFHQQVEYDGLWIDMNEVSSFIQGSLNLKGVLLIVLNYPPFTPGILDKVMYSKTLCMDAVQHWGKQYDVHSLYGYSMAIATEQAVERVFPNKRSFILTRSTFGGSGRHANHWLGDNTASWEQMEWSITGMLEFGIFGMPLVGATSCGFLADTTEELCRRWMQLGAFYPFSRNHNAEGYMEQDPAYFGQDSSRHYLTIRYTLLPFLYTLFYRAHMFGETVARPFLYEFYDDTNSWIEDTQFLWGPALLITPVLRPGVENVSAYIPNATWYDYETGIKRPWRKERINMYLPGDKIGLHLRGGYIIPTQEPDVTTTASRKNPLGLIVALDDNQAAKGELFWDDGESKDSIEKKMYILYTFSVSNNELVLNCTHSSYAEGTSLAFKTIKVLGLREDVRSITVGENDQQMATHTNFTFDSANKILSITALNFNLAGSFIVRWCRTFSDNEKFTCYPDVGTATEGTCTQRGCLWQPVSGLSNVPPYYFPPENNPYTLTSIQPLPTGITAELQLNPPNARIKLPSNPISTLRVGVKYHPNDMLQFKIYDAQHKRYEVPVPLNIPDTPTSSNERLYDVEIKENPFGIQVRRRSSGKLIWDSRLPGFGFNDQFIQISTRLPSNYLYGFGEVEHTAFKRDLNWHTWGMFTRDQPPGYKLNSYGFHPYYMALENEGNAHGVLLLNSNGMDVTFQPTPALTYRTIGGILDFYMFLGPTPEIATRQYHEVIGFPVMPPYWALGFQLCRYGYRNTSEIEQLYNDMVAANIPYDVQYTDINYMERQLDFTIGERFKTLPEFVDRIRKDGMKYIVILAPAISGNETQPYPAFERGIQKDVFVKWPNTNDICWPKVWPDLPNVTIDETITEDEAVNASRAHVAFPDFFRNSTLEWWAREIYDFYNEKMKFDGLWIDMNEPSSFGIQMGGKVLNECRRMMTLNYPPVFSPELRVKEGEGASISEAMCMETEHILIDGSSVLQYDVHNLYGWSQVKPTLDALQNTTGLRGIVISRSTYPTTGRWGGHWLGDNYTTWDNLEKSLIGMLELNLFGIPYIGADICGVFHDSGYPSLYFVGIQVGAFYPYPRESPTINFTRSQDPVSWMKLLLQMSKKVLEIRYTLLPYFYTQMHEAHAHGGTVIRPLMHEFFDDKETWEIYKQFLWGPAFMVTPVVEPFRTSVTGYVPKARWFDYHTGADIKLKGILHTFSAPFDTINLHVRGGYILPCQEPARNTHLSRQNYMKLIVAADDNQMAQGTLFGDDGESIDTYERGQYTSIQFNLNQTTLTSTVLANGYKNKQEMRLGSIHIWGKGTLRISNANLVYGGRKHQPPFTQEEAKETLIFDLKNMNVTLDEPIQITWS

## O=[N+]([O-])c1ccccc1C1OC[C@@H](O)[C@@H]([C@H](O)C[S@@+]2C[C@@H](O)[C@H](O)[C@H]2CO)O1 (some centres unmarked) [compound 10]
Rat intestinal sucrase [1]; Lineweaver–Burk plots
  type of inhibition, sucrase: fully competitive
Rat intestinal sucrase [1]; small intestinal α-glucosidase, Lineweaver–Burk, read-out: Ki Sucrase (Km = 23.56 mM) (converted)
  Ki: 0.693 µM
sucrose-loaded mice; 1.0 mpk
  Declined Rate of Blood Glucose Levels, 15 min: 41.8%
  Declined Rate of Blood Glucose Levels, 30 min: 43.00%
  Declined Rate of Blood Glucose Levels, 60 min: 39.1%
  Declined Rate of AUC: 35.2%
sucrose-loaded mice; 10.0 mpk
  Declined Rate of Blood Glucose Levels, 15 min: 48.0%
  Declined Rate of Blood Glucose Levels, 30 min: 54.6%
  Declined Rate of Blood Glucose Levels, 60 min: 52.5%
  Declined Rate of AUC: 46.6%
maltose-loaded mice; 1 mg/kg
  Declined Rate of Blood Glucose Levels, 15 min: 52.8%
  Declined Rate of Blood Glucose Levels, 30 min: 55.0%
  Declined Rate of Blood Glucose Levels, 60 min: 47.2%
maltose-loaded mice
  Declined Rate of AUC: 43.5%
[2]
  cytotoxicity (MTT assay): non-toxic
Rat intestinal maltase [3]; Lineweaver–Burk plots
  type of inhibition, maltase: fully competitive
Rat intestinal maltase [3]
  Ki Maltase (Km = 3.0 mM): 0.42 µg/mL

## C[C@H]1O[C@H](O[C@H]2[C@H](O)[C@@H](O)[C@@H](O[C@H]3[C@H](O)[C@@H](O)C(O)O[C@@H]3CO)O[C@@H]2CO)[C@H](O)[C@@H](O)[C@@H]1N[C@H]1C=C(CO)[C@@H](O)[C@H](O)[C@H]1O (some centres unmarked) [acarbose]
sucrose-loaded mice; 20.0 mpk, 20 mg/kg
  Declined Rate of Blood Glucose Levels, 15 min: 45.7%
  Declined Rate of Blood Glucose Levels, 30 min: 48.4%
  Declined Rate of AUC: 40.5%
sucrose-loaded mice; 20.0 mpk
  Declined Rate of Blood Glucose Levels, 60 min: 44.3%
Rat intestinal maltase [4]
  IC50: 3.2 µM
Rat intestinal maltase [3]
  Ki Maltase (Km = 3.0 mM): 1.98 µg/mL (≈ 3.07 µM)
Rat intestinal maltase [5]
  IC50: 3.5 µM

## OCC1C(O)C(O)C[S+]1CC(O)C1OC(c2cc(C(F)(F)F)cc(C(F)(F)F)c2)OCC1O [19i, 1,4-Dideoxy-1,4-[(R)-(5-deoxy-1,3-O-(3,5-bis(trifluoromethyl)benzylidene)-D-arabinitol-5-yl)episulfoniumylidene]-D-arabinitol chloride]
Rat intestinal sucrase [6]; [7]
  IC50: 10 ± 1.8 µM
Rat intestinal maltase [5]
  IC50: 8.9 ± 0.53 µM

## OCC1C(O)C(O)C[S+]1CC(O)C1OC(c2ccccc2Br)OCC1O [19k, 1,4-Dideoxy-1,4-[(R)-(5-deoxy-1,3-O-(o-bromobenzylidene)-D-arabinitol-5-yl)episulfoniumylidene]-D-arabinitol chloride]
Rat intestinal sucrase [6]; [7]
  IC50: 1.1 ± 0.02 µM
Rat intestinal maltase [5]
  IC50: 1.9 ± 0.08 µM

## OCC1C(O)C(O)C[S+]1CC(O)C1OC(c2ccccc2I)OCC1O [19o, 1,4-Dideoxy-1,4-[(R)-(5-deoxy-1,3-O-(o-iodobenzylidene)-D-arabinitol-5-yl)episulfoniumylidene]-D-arabinitol chloride]
Rat intestinal sucrase [6]; [7]
  IC50: 3.3 ± 0.28 µM
Rat intestinal maltase [5]
  IC50: 3.1 ± 0.66 µM

## OC[C@@H]1[C@@H](O)[C@H](O)C[Se@+]1C[C@@H](O)[C@H]1OC(c2ccccc2Br)OC[C@H]1O (stereo partly drawn) [20k, (1S,2R,3S,4S)-1-((2S)-2-((4S,5R)-2-(2-Bromophenyl)-5-hydroxy-1,3-dioxan-4-yl)-2-hydroxyethyl)-3,4-dihydroxy-2-(hydroxymethyl)tetrahydro-1H-selenophen-1-ium chloride]
Rat intestinal sucrase [6]
  IC50: 0.12 ± 0.05 µM
Rat intestinal maltase [5]
  IC50: 0.53 ± 0.22 µM

## OCC(CO)N[C@H]1C[C@](O)(CO)[C@@H](O)[C@H](O)[C@H]1O [voglibose]
Rat intestinal sucrase [6]; [7]
  IC50: 0.35 µM
maltose-loaded mice
  Declined Rate of Blood Glucose Levels, 15 min: 49.2%
  Declined Rate of Blood Glucose Levels, 30 min: 53.7%
maltose-loaded mice; 1 mg/kg
  Declined Rate of Blood Glucose Levels, 60 min: 40.1%
  Declined Rate of AUC: 39.8%
Rat intestinal maltase [4]
  IC50: 1.5 µM
Rat intestinal maltase [5]
  IC50: 1.45 µM

## OCC1C(O)C(O)C[S+]1CC(O)C1OC(c2cccc(Cl)c2Cl)OCC1O [19a, 1,4-Dideoxy-1,4-[(R)-(5-deoxy-1,3-O-(2,3-dichlorobenzylidene)-D-arabinitol-5-yl)episulfoniumylidene]-D-arabinitol chloride]
Rat intestinal sucrase [6]; [7]
  IC50: 1.6 ± 0.43 µM
Rat intestinal maltase [5]
  IC50: 0.5 ± 0.08 µM

## OC[C@@H]1[C@@H](O)[C@H](O)C[Se@+]1C[C@@H](O)[C@H]1OC(c2ccc(Cl)c(Cl)c2)OC[C@H]1O (stereo partly drawn) [20f, (1S,2R,3S,4S)-1-((2S)-2-((4S,5R)-2-(3,4-Dichlorophenyl)-5-hydroxy-1,3-dioxan-4-yl)-2-hydroxyethyl)-3,4-dihydroxy-2-(hydroxymethyl)tetrahydro-1H-selenophen-1-ium chloride]
Rat intestinal sucrase [6]
  IC50: 0.33 ± 0.04 µM
Rat intestinal maltase [5]
  IC50: 0.47 ± 0.11 µM

## OC[C@@H]1[C@@H](O)[C@H](O)C[Se@+]1C[C@@H](O)[C@H]1OC(c2ccccc2F)OC[C@H]1O (stereo partly drawn) [20n, (1S,2R,3S,4S)-1-((2S)-2-((4S,5R)-2-(2-Fluorophenyl)-5-hydroxy-1,3-dioxan-4-yl)-2-hydroxyethyl)-3,4-dihydroxy-2-(hydroxymethyl)tetrahydro-1H-selenophen-1-ium chloride]
Rat intestinal sucrase [6]
  IC50: 0.2 ± 0.06 µM
Rat intestinal maltase [5]
  IC50: 3.75 ± 0.58 µM

## OC[C@@H]1[C@@H](O)[C@H](O)C[Se@+]1C[C@@H](O)[C@H]1OC(c2cc(C(F)(F)F)cc(C(F)(F)F)c2)OC[C@H]1O (stereo partly drawn) [20i, (1S,2R,3S,4S)-1-((2S)-2-((4S,5R)-2-(3,5-Bis(trifluoromethyl)phenyl)-5-hydroxy-1,3-dioxan-4-yl)-2-hydroxyethyl)-3,4-dihydroxy-2-(hydroxymethyl)tetrahydro-1H-selenophen-1-ium chloride]
Rat intestinal sucrase [6]
  IC50: 0.41 ± 0.11 µM
Rat intestinal maltase [5]
  IC50: 1.01 ± 0.32 µM
